From US20090233964A1, “METHODS FOR IMPROVING THE PHARMACOKINETICS OF HIV INTEGRASE INHIBITORS” (priority 2005, published 2009) come the findings set out here.

Series [1] in a line: Example 4: safety of FTC/TDF and Compound 1/r. The format is in vivo, human. The following applies: Compound 1/r and their co-administration.
The test system of the next series is HIV-1. The series is described as follows: Example 2: antiviral activity (HIV-1 RNA reduction) and exposure-response in subjects infected with HIV-1. The format is in vivo, human. On the procedure:
At screening, subjects were to have a plasma HIV-1 RNA load of ≧10,000 to ≦300,000 copies/mL and a CD4+ cell count of ≧200 cells/mm^3.
Safety, tolerability, pharmacokinetics, and efficacy were monitored through Day 21 after dosing. […] The placebo group in Cohort 5 also received 100 mg of RTV.
The duration of the study was 21 days, with 10 days of treatment and 11 days of follow-up. […] Matching placebo was administered orally under fed conditions. For Cohort 5 only, 100 mg RTV capsules were coadministered orally under fed conditions.
Efficacy: The primary efficacy endpoint was the maximum HIV-1 RNA reduction (log10 copies/mL) from baseline through Day 11. The maximum reduction for an individual subject was the maximum drop among changes from baseline between Days 2 and 11.
The 2 subjects who received placebo+100 mg RTV were treated as a separate group. HIV-1 RNA values below the detection limit (50 copies/mL) were entered as 49 copies/mL.

A short description of series [2]: Example 7: safety of single 400 mg dose of Compound 1. Conditions: single oral dose, Japanese male healthy volunteers. In kind it is in vivo, human. On the procedure:
The subjects were admitted to the medical institution in the afternoon on the day before administration (“Day −1”). […] The subjects were discharged the day after administration (“Day 2”). Thus, the subjects were hospitalized for a total of three days. Follow up assessment for safety was performed 6 to 8 days after administration (“Days 7 to 9”).

For series [3] the following is noted: human, in vivo. On the procedure:
Safety, tolerability, pharmacokinetics, and efficacy were monitored through Day 21 after dosing. The active treatments in the 5 cohorts were as follows: […] The duration of the study was 21 days, with 10 days of treatment and 11 days of follow-up. […] Matching placebo was administered orally under fed conditions. For Cohort 5 only, 100 mg RTV capsules were coadministered orally under fed conditions. […] Pharmacokinetics: The pharmacokinetic parameters of Compound 1 in plasma and peripheral blood mononuclear cells were summarized using descriptive statistics.

A short description of series [4]: Example 7: effect of food on pharmacokinetics of Compound 1 in Japanese male healthy volunteers. The format is in vivo, human. Conditions: 400 mg. The procedure:
Subjects in the 400 mg fasted cohort received an additional 400 mg dose with breakfast after a washout period (generally a minimum of ten days after the initial administration). The interval of ten days between the two doses was considered appropriate for eliminating any within subject carryover effects. […] Doses were administered at similar times for each subject in each treatment period. […] Plasma samples were isolated from healthy subjects administered with Compound 1. The plasma samples were extracted by solid phase extraction using Empore™ Disk Plate (C8SD), and then measured by high-performance liquid chromatography/tandem mass spectrometry (LC/MS/MS) (HPLC model 2795 separations module from Waters; mass spectrometer model API4000 from MDS SCIEX). Ionization and detection were performed with electrospray ionization and positive ion detection with multiple reaction monitoring, respectively. […] To 50 μL of plasma samples spiked with […] each of 90% acetonitrile and 20 mmol/L ammonium formate-formic acid buffer (pH 3.0)/acetonitrile (10:90, v/v), 10 μL each of internal standard solution was added. To these samples, 200 μL of 0.1% formic acid in 10% acetonitrile was added. These solutions were then mixed for 10 seconds and centrifuged at 10,000 rpm for 5 minutes at 4° C. […] Then, 10 μL of each solution was injected into the LC/MS/MS system and analyzed.

Series [5] is described as follows: Example 1: multiple-dose safety of Compound 1 alone and with RTV. In kind it is in vivo, human. On the procedure:
The single-dose and multiple-dose pharmacokinetics of Compound 1 were also determined. The multiple-dose safety of Compound 1 administered alone and with RTV was also determined. Safety: Safety was evaluated by assessment of clinical laboratory tests at baseline and at various time points during the study; periodic physical examinations, including vital signs; and documentation of adverse events throughout the study. Safety: No statistical inference was performed for safety data in this pharmacokinetic study.

The conditions of series [6]: human, in vivo. The procedure:
Safety, tolerability, pharmacokinetics, and efficacy were monitored through Day 21 after dosing. The active treatments in the 5 cohorts were as follows: […] Safety: Adverse events, vital signs, electrocardiogram, ophthalmologic examination, and clinical laboratory tests were evaluated for safety. Safety: The proportion of subjects with adverse events was summarized by treatment, system organ class and preferred term for treatment-emergent adverse events, treatment-related adverse events, serious adverse events, and adverse events leading to study drug discontinuation. Adverse events were coded using the Medical Dictionary for Regulatory Activities (MedDRA®) version 8.1. […] Laboratory results were expressed on the original measurement scale and in terms of the toxicity grade. Changes from baseline in quantitative laboratory tests were summarized by visit.
This is another data set of the same source.

Series [7] is described as follows: Example 3: Compound 1 pharmacokinetics at a range of RTV doses. Conditions: Compound 1 125 mg QD + 200 mg RTV; mean. In kind it is in vivo, human. On the procedure: (§1) The effects of a range of RTV doses (20, 50, 100, and 200 mg once daily) on hepatic cytochrome P450 3A (CYP3A) activity were also evaluated using a CYP3A substrate.
(§2) A randomized, open label, single-center, multiple-dose, two group, Phase 1 study was conducted (24 subjects (16 evaluable) subjects in two groups; 12 (8 evaluable) in each group) with an approximately even distribution of healthy male and non-pregnant, non-lactating female subjects aged between 18-45, inclusive
(§3) The population mean slope was estimated along with a corresponding 90% CI. This study was performed in compliance with the guidelines of Good Clinical Practices (GCPs).

Series [8] in a line: Example 1: plasma pharmacokinetics of Compound 1 alone and coadministered with RTV in healthy subjects. Conditions: 100 mg. In kind it is in vivo, human. From the text: The study was an open-label, fixed-sequence, crossover, pharmacokinetic study with 12 subjects. The subjects were healthy males and non-pregnant, nonlactating females between 18 and 45 years of age, inclusive. The duration of the study was 20 days, with Period 1 of Days 1 to 10 and Period 2 of days 11 to 20. Follow-up contact was on day 27.

Series [9] can be described thus: Example 5: pharmacokinetic drug-drug interaction of zidovudine and Compound 1/r. Conditions: for AUCtau, Cmax, Ctau (Compound 1 only) 90% CI of GMR (co-administration:alone): Compound 1/r 200/100 mg QD plus ZDV 300 mg BID, with a meal, bounds 70% to 143%. In kind it is in vivo, human. From the text:
Zidovudine is a NRTI used in HIV patients.

For series [10] the following is noted: in vivo. The procedure:
Pharmacokinetic (PK) blood draws were performed on days 7, 17, and 27.

For series [11], the system named is hepatic cytochrome P450 3A (CYP3A) activity. The series is described as follows: Example 3: IV midazolam (MDZ) pharmacokinetics as probe for CYP3A activity at a range of RTV doses. Conditions: for AUCinf: MDZ 1 mg IV, mean. On the procedure: as §1, §2
For MDZ: AUC0-last, AUCinf, % AUCexp, Clast, Tlast, λz, T1/2, CL and Vz.
as §3

Series [12] is described as follows: Example 3: RTV pharmacokinetics when dosed with Compound 1. In kind it is in vivo, human. The following applies: RTV 100 mg QD with Compound 1; mean (CV %). The procedure: as §1, §2, §3
Where [13] appears, read: after administration of Compound 1+RTV.

Read-outs that look alike come from different tables or passages of the source.

`COc1cc2c(cc1Cc1cccc(Cl)c1F)c(=O)c(C(=O)O)cn2[C@H](CO)C(C)C` [Compound 1, 6-(3-chloro-2-fluorobenzyl)-1-[(2S)-1-hydroxy-3-methylbutan-2-yl]-7-methoxy-4-oxo-1,4-dihydroquinoline-3-carboxylic acid]: the “serious adverse events or discontinuations due to AEs” value in [1] is given as “no serious adverse events”. Moreover, the “Emax (reduction from baseline, simple Emax model)” value in the series with HIV-1 (Compound 1 Ctau versus HIV-1 RNA reduction) came out at 2.32 log10 copies/mL. Further, in the series on HIV-1 (all dose levels, 10 consecutive days), the “HIV-1 RNA levels compared with placebo” value is listed as “significantly reduced HIV-1 RNA levels”. In addition, in [2], the “electrocardiogram (ECG) changes” value is listed as “No clinically significant electrocardiogram (ECG) changes were noted”; the safety and tolerability result was “safe and well tolerated with no serious adverse events”. Further, the enhancement of exposure in [3] fell in the range of 10 to 16 fold. In addition, in [4], the “AUC0-inf higher in the fed state compared to the fasted state” value was determined as 2.69 fold and the “Cmax higher in the fed state compared to the fasted state” value came to 3.30 fold. Besides, the serious adverse events entry in series [5] (Compound 1 alone and Compound 1+RTV, whole study) was “No serious adverse events occurred”. Further, in series [5] (setting [13]), the “subjects with treatment-emergent AEs considered related to study drugs” value is 5 of 12 subjects; the “treatment-related AEs reported in more than one subject” value is “nausea (three subjects), vomiting (two subjects), headache (two subjects), and pruritus (two subjects)”. Besides, the “subjects with treatment-emergent AEs considered related to study drugs” value in [5] (after administration of Compound 1 alone) is 2 of 12 subjects. Besides, the tolerability entry in [5] (concurrent oral Compound 1 100 mg twice daily and RTV 100 mg twice daily for up to 10 days) is reported as “generally well-tolerated”. In addition, in series [5] (during administration of Compound 1+RTV), the “subjects experiencing nausea (most frequent treatment-emergent AE)” value was determined as 4 subjects. The “subjects with treatment-emergent adverse events” value in series [5] (during administration of Compound 1+RTV, each 100 mg twice daily) is on record as 7 of 12 subjects. In [5] (during administration of Compound 1 alone, 100 mg twice daily), the “subjects with treatment-emergent adverse events” value is listed as 4 of 12 subjects. The tolerability result in series [5] (oral Compound 1 100 mg twice daily for up to 20 days) is listed as “well tolerated”. In [6], the “changes in hematology and urinalysis findings, vital signs, body weight, electrocardiogram and ophthalmic examinations” value is recorded as “No clinically relevant changes”; the “dose interruptions, discontinuations, or serious adverse events” value was “no dose interruptions, discontinuations, or serious adverse events”; the tolerability result is given as “generally well tolerated”. The AUCtau in [7] was determined as 20600 ng·h/mL. Further, the “mean steady-state systemic exposure (AUCtau, Day 10) lower compared with mean exposure (AUCinf) after a single dose (Day 1)” value in series [8] (Compound 1 alone, indicating autoinduction) is recorded as “approximately 20%”. Further, in [8] (both sexes, human, plasma, po), the AUC is 908 ng·h/mL. In series [9] (human, in vivo), the Half-life result was “supporting once daily dosing”. Also, the “PK (Cmax, AUCtau, Ctau) during co-administration versus alone” value in series [10] was “unaffected”.

Consider `Cc1cn([C@H]2C[C@H](N=[N+]=[N-])[C@@H](CO[C@@H]3O[C@H](C(=O)O)[C@@H](O)[C@H](O)[C@H]3O)O2)c(=O)[nH]c1=O` [G-ZDV], for which the “AUCtau, Cmax, Ctau (Compound 1 only) 90% CI of GMR (co-administration:alone)” value in [9] was “within predefined PK equivalence bounds”.

As for `Cc1ncc2n1-c1ccc(Cl)cc1C(c1ccccc1F)=NC2` [MDZ, midazolam], the AUCinf worked out at 101 ng·h/mL in [11] (+20 mg RTV QD with Compound 1 125 mg); 145 ng·h/mL in series [11] (+50 mg RTV QD with Compound 1 125 mg); 219 ng·h/mL in series [11] (+100 mg RTV QD with Compound 1 125 mg); 146 ng·h/mL in series [11] (+200 mg RTV QD with Compound 1 125 mg); 31.0 ng·h/mL in [11] (MDZ alone (Day 1)). The CL in series [11] (MDZ +20 mg RTV) came out at 2.38 mL/min/kg; in [11] (MDZ +50 mg RTV), 1.5 mL/min/kg; in [11] (MDZ +100 mg RTV), 1.2 mL/min/kg; in [11] (MDZ +200 mg RTV), 1.45 mL/min/kg; in series [11] (MDZ alone) it was 7.45 mL/min/kg. For the same compound, the Clast came out at 1.53 ng/mL in series [11] (MDZ +20 mg RTV); 2.51 ng/mL in series [11] (MDZ +50 mg RTV); 3.34 ng/mL in series [11] (MDZ +100 mg RTV); 2.58 ng/mL in series [11] (MDZ +200 mg RTV); 0.20 ng/mL in series [11] (MDZ alone). Besides, the Half-life in [11] (MDZ +20 mg RTV) stood at 7.83 h; in series [11] (MDZ +50 mg RTV), 14.4 h; in [11] (MDZ +100 mg RTV) it was 22.4 h; in [11] (MDZ +200 mg RTV), 15.2 h; in [11] (MDZ alone), 3.97 h.

On to `CC(C)c1nc(CN(C)C(=O)N[C@H](C(=O)N[C@@H](Cc2ccccc2)C[C@H](O)[C@H](Cc2ccccc2)NC(=O)OCc2cncs2)C(C)C)cs1` [Ritonavir, (2S,3S,5S)-5-(N—(N—((N-Methyl-N-((2-isopropyl-4-thiazolyl)methyl)amino)-carbonyl)-L-valinyl)amino)-2-(N-((5-thiazolyl)methoxycarbonyl)amino)-1,6-diphenyl-3-hydroxyhexane], for which the Half-life in series [12] was 6.34 (18.4) hr.

Take `Cc1cn([C@H]2C[C@H](N=[N+]=[N-])[C@@H](CO)O2)c(=O)[nH]c1=O` [ZDV, zidovudine, reference compound]: in [9], the “AUCtau, Cmax, Ctau (Compound 1 only) 90% CI of GMR (co-administration:alone)” value is listed as “within predefined PK equivalence bounds”.
